Laboratory results from US12559506B2, “Indazole based compounds and associated methods of use” (Arvinas Operations, Inc., priority 2021, dated 2026).
Where two headings read alike, the source gives them in different places.

What was measured:
Format in all cases: cell-based
G2019S LRRK2 = target: T1, G2019S LRRK2 (Homo sapiens, UniProt Q5S007, G2019S); test: LRRK2 degradation assay, HiBit-tagged G2019S LRRK2 expressed from plasmid in HEK293 cells (Nano-Glo Dual-Luciferase); details: 24 hours
T1 construct: expressed in transfected cells; host or cells: HEK293 (ATCC CRL-1573), transient transfection, mammalian expression vector with ubiquitin promoter
Procedure, shortened: (§1)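 Degradation read as Nano-Glo HiBiT signal over firefly luciferase (cell number/viability) after 24 h compound exposure of transiently transfected HEK293 expressing C-terminally HiBiT-tagged wildtype or G2019S LRRK2. Data as % DMSO; DC50/Dmax fitted per plate, triplicate plates repeated twice.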

wildtype LRRK2 = target: T2, wildtype LRRK2 (Homo sapiens, UniProt Q5S007); test: LRRK2 degradation assay, HiBit-tagged wildtype LRRK2 expressed from plasmid in HEK293 cells (Nano-Glo Dual-Luciferase); details: 24 hours; for Dmax: read-out: **WT Dmax (%); for DC50: read-out: *WT DC50
T2 construct: expressed in transfected cells; host or cells: HEK293 (ATCC CRL-1573), transient transfection, mammalian expression vector with ubiquitin promoter
Procedure, shortened: as §1

[1] = target: T3, LRRK2 (endogenous, HiBit tagged) (Homo sapiens, UniProt Q5S007); test: Endogenous LRRK2 degradation assay, endogenous gene C-terminally HiBit-tagged in HEK293 cells (Nano-Glo Dual Luciferase); details: 24 hours; for Dmax: read-out: **Endogenous WT Dmax (%); for DC50: read-out: *Endogenous WT DC50
T3 construct: endogenous in cells; host or cells: HEK293 cells with HiBit knock-in at the endogenous LRRK2 locus, stably expressing firefly luciferase
Procedure, shortened: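 LRRK2-HiBit quantified via Nano-Glo Dual Luciferase in HEK293 knock-in cells co-expressing firefly luciferase, after 24 h exposure to compound (1 μM final top, 1:3, 11 points). Values normalised to DMSO median per plate and curve-fitted; Alamar Blue viability run alongside.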

[2] = HiBit-tagged G2019S LRRK2 in HEK293 cells
[3] = HiBit-tagged wildtype LRRK2 in HEK293 cells
[4] = endogenous HiBit-tagged LRRK2 in HEK293 cells
[5] = HiBit-tagged G2019S LRRK2, HEK293 cells
[6] = HiBit-tagged wildtype LRRK2, HEK293 cells
[7] = endogenous HiBit-tagged LRRK2, HEK293 cells

T3 sequence (Q5S007 whole entry): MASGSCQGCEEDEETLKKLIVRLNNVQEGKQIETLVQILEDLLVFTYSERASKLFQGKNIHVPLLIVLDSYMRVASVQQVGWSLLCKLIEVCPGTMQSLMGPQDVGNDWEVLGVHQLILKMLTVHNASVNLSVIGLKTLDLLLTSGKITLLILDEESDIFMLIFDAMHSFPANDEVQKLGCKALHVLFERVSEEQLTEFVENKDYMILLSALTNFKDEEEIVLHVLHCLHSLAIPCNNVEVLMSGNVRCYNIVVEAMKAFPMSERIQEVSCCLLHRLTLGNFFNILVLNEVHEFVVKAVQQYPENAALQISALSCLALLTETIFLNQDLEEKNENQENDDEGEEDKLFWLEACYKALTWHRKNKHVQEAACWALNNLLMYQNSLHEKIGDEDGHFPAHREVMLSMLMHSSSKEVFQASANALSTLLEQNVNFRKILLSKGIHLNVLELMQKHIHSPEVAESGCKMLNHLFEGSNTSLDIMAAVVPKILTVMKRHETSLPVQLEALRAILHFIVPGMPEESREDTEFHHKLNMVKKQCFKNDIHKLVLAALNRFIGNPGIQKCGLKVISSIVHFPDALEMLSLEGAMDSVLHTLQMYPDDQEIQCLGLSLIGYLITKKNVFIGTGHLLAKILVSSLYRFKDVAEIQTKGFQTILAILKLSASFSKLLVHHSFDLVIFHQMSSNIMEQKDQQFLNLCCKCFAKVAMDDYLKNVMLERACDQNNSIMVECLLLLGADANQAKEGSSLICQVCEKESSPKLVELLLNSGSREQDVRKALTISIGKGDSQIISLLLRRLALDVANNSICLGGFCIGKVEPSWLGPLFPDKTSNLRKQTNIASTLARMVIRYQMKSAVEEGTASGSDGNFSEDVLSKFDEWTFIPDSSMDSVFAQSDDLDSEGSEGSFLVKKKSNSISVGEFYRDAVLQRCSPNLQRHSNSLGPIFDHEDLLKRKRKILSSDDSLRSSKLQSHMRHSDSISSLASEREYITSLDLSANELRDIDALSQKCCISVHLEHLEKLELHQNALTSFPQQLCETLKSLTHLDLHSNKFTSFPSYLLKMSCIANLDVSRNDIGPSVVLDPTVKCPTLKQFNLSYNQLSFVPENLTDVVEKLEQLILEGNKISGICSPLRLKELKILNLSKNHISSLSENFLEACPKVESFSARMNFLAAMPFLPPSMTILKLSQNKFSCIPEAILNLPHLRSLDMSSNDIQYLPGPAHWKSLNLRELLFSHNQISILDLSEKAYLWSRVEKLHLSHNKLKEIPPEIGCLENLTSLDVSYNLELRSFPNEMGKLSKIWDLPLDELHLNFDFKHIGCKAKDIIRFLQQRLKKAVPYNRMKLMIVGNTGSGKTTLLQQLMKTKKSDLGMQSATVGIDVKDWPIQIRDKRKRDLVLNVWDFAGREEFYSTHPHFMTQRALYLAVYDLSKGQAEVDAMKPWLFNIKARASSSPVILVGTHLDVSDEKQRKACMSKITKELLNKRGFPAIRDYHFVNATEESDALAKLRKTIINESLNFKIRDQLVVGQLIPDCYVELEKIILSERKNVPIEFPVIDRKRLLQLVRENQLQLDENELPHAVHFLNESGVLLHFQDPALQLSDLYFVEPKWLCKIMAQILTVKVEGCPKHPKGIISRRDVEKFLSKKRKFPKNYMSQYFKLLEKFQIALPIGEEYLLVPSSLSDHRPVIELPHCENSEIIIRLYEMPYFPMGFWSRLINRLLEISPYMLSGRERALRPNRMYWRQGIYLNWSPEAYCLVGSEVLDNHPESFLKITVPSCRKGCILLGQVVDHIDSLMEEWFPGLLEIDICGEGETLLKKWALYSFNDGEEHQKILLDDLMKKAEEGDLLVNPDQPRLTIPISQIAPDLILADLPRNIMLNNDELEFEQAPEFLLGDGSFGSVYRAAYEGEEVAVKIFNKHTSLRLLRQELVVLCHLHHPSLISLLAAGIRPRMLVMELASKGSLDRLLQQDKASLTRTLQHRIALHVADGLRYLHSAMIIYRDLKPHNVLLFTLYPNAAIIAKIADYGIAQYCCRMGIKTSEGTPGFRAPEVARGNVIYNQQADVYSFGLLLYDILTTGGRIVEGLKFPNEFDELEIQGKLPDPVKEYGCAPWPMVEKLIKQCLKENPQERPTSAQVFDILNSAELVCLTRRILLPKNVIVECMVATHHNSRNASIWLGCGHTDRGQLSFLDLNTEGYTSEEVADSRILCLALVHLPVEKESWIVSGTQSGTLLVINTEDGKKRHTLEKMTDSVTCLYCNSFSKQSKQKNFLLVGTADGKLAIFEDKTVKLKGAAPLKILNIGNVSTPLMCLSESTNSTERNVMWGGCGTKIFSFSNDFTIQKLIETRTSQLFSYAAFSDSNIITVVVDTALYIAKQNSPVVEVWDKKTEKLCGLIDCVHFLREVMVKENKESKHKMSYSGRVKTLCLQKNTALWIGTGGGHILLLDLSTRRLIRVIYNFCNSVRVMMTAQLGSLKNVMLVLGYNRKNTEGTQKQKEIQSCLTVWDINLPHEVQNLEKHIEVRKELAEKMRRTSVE
T2 sequence (Q5S007 whole entry): as above
T1 sequence (Q5S007 whole entry G2019S): as the sequence (Q5S007 whole entry) above, with G2019S counted along it

SMILES	DC50 (G2019S LRRK2; [2])	Dmax (G2019S LRRK2; [2])	Dmax (wildtype LRRK2; [3])	DC50 (wildtype LRRK2; [3])	Dmax [1, 4]	DC50 [1, 4]	DC50 (G2019S LRRK2; [5])	Dmax (G2019S LRRK2; [5])	Dmax (wildtype LRRK2; [6])	DC50 (wildtype LRRK2; [6])	Dmax [1, 7]	DC50 [1, 7]
C[C@H]1CN(c2cc(-c3n[nH]c4ccc(OC5(C)CC5)cc34)ncn2)CCN1CCC1(F)CCN(CC2CCN(c3ccc4c(c3)C(=O)N(C3CCC(=O)NC3=O)C4=O)CC2)CC1 (stereo partly drawn) [Compound 52, 2-(2,6-dioxo-3-piperidyl)-5-[4-[[4-fluoro-4-[2-[(2S)-2-methyl-4-[6-[5-(1-methylcyclopropoxy)-1H-indazol-3-yl]pyrimidin-4-yl]piperazin-1-yl]ethyl]-1-piperidyl]methyl]-1-piperidyl]isoindoline-1,3-dione]	< 10 nM	50 to 70%	50 to 70%	< 10 nM	≥ 70%	10 to 50 nM						
CC1(Oc2ccc3[nH]nc(-c4cc(N5CCN(C[C@@H]6CC(=O)N(CC7CCN(c8ccc9c(c8)C(=O)N(C8CCC(=O)NC8=O)C9=O)CC7)C6)CC5)ncn4)c3c2)CC1 (single isomer, unassigned) [Compound 121]	< 10 nM	50 to 70%	50 to 70%	< 10 nM	≥ 70%	< 10 nM						
CC1(Oc2ccc3n[nH]c(-c4cc(N5CCC(CN6CCN(CC7CCN(c8ccc9c(c8)CN(C8CCC(=O)NC8=O)C9=O)CC7)CC6)CC5)ncn4)c3c2)CC1 (stereo not drawn) [Compound 112, 3-[5-[4-[[4-[[1-[6-[5-(1-methylcyclopropoxy)-2H-indazol-3-yl]pyrimidin-4-yl]-4-piperidyl]methyl]piperazin-1-yl]methyl]-1-piperidyl]-1-oxo-isoindolin-2-yl]piperidine-2,6-dione]	< 10 nM	≥ 70%	≥ 70%	< 10 nM	≥ 70%	< 10 nM						
CC1(Oc2ccc3[nH]nc(-c4ccnc(N5CC(F)(CN6CCN(CC7CCN(c8ccc9c(c8)C(=O)N(C8CCC(=O)NC8=O)C9=O)CC7)CC6)C5)c4)c3c2)CC1 (stereo not drawn) [Compound 132, 2-(2,6-dioxopiperidin-3-yl)-5-[4-({4-[(3-fluoro-1-{4-[5-(1-methylcyclopropoxy)-1H-indazol-3-yl]pyridin-2-yl}azetidin-3-yl)methyl]piperazin-1-yl}methyl)piperidin-1-yl]-2,3-dihydro-1H-isoindole-1,3-dione]	< 10 nM	50 to 70%	50 to 70%	< 10 nM	≥ 70%	< 10 nM						
C[C@H]1CN(c2cc(-c3[nH]nc4ccc(OC5(C)CC5)cc34)ncn2)CCN1CCC1(F)CCN(CC2CCN(c3ccc4c(c3)CN(C3CCC(=O)NC3=O)C4=O)CC2)CC1 (stereo partly drawn) [Compound 64, 3-[5-[4-[[4-fluoro-4-[2-[(2S)-2-methyl-4-[6-[5-(1-methylcyclopropoxy)-2H-indazol-3-yl]pyrimidin-4-yl]piperazin-1-yl]ethyl]-1-piperidyl]methyl]-1-piperidyl]-1-oxo-isoindolin-2-yl]piperidine-2,6-dione]	< 10 nM	≥ 70%	≥ 70%	< 10 nM	≥ 70%	< 10 nM						
C[C@H]1CN(c2cc(-c3n[nH]c4ccc(OC5(C)CC5)cc34)ncn2)CCN1CC1(F)CCN(CC2CCN(c3ccc4c(c3)C(=O)N(C3CCC(=O)NC3=O)C4=O)CC2)CC1 (stereo partly drawn) [Compound 69, 2-(2,6-dioxo-3-piperidyl)-5-[4-[[4-fluoro-4-[[(2S)-2-methyl-4-[6-[5-(1-methylcyclopropoxy)-1H-indazol-3-yl]pyrimidin-4-yl]piperazin-1-yl]methyl]-1-piperidyl]methyl]-1-piperidyl]isoindoline-1,3-dione]	< 10 nM	< 50%	< 50%	< 10 nM	50 to 70%	< 10 nM						
CC1(Oc2ccc3n[nH]c(-c4cc(N5CCN(CC6(F)CCN(C(=O)C7CN(c8ccc9c(c8)C(=O)N(C8CCC(=O)NC8=O)C9=O)C7)CC6)CC5)ncn4)c3c2)CC1 (stereo not drawn) [Compound 136, 2-(2,6-dioxo-3-piperidyl)-5-[3-[4-fluoro-4-[[4-[6-[5-(1-methylcyclopropoxy)-2H-indazol-3-yl]pyrimidin-4-yl]piperazin-1-yl]methyl]piperidine-1-carbonyl]azetidin-1-yl]isoindoline-1,3-dione]	< 10 nM	50 to 70%	50 to 70%	< 10 nM								
CC1(Oc2ccc3n[nH]c(-c4cc(N5CCN(Cc6ccc(CN7CCN(c8ccc9c(c8)C(=O)N(C8CCC(=O)NC8=O)C9=O)CC7)cc6)CC5)ncn4)c3c2)CC1 (stereo not drawn) [Compound 169, 2-(2,6-dioxo-3-piperidyl)-5-[4-[[4-[[4-[6-[5-(1-methylcyclopropoxy)-2H-indazol-3-yl]pyrimidin-4-yl]piperazin-1-yl]methyl]phenyl]methyl]piperazin-1-yl]isoindoline-1,3-dione]							10 to 50 nM	50 to 70%	< 50%	< 10 nM		
CC1(Oc2ccc3[nH]nc(-c4ccnc(N5CCC(CN6CCN(CC7CCN(c8ccc9c(c8)C(=O)N(C8CCC(=O)NC8=O)C9=O)CC7)CC6)CC5)c4)c3c2)CC1 (stereo not drawn) [Compound 78, 2-(2,6-dioxo-3-piperidyl)-5-[4-[[4-[[1-[4-[5-(1-methylcyclopropoxy)-1H-indazol-3-yl]-2-pyridyl]-4-piperidyl]methyl]piperazin-1-yl]methyl]-1-piperidyl]isoindoline-1,3-dione]	< 10 nM	50 to 70%	50 to 70%	< 10 nM								

More lines, now with the values ahead:

DC50 (G2019S LRRK2; [2])	Dmax (G2019S LRRK2; [2])	Dmax (wildtype LRRK2; [3])	DC50 (wildtype LRRK2; [3])	Dmax [1, 4]	DC50 [1, 4]	DC50 (G2019S LRRK2; [5])	Dmax (G2019S LRRK2; [5])	Dmax (wildtype LRRK2; [6])	DC50 (wildtype LRRK2; [6])	Dmax [1, 7]	DC50 [1, 7]	SMILES
< 10 nM	≥ 70%	≥ 70%	< 10 nM	≥ 70%	10 to 50 nM							C[C@H]1CN(c2cc(-c3[nH]nc4ccc(OC5(C)CC5)cc34)ncn2)CCN1CC1CCN(CC2CCN(c3cccc4c3C(=O)N(C3CCC(=O)NC3=O)C4=O)CC2)CC1 (stereo partly drawn) [Compound 137, 2-(2,6-dioxo-3-piperidyl)-4-[4-[[4-[[(2S)-2-methyl-4-[6-[5-(1-methylcyclopropoxy)-2H-indazol-3-yl]pyrimidin-4-yl]piperazin-1-yl]methyl]-1-piperidyl]methyl]-1-piperidyl]isoindoline-1,3-dione]
						< 10 nM	50 to 70%	50 to 70%	< 10 nM	≥ 70%	< 10 nM	CC1(Oc2ccc3[nH]nc(-c4ccnc(N5CC(CC6CCN(CC7CCN(c8ccc9c(c8)C(=O)N(C8CCC(=O)NC8=O)C9=O)CC7)CC6)C5)c4)c3c2)CC1 (stereo not drawn) [Compound 160, 2-(2,6-dioxo-3-piperidyl)-5-[4-[[4-[[1-[4-[5-(1-methylcyclopropoxy)-1H-indazol-3-yl]-2-pyridyl]azetidin-3-yl]methyl]-1-piperidyl]methyl]-1-piperidyl]isoindoline-1,3-dione]
< 10 nM	50 to 70%	50 to 70%	< 10 nM	≥ 70%	< 10 nM							CC1(Oc2ccc3n[nH]c(-c4cc(N5CC(OC6CCN(CC7CCN(c8ccc9c(c8)C(=O)N(C8CCC(=O)NC8=O)C9=O)CC7)CC6)C5)ncn4)c3c2)CC1 (stereo not drawn) [Compound 130, 2-(2,6-dioxo-3-piperidyl)-5-[4-[[4-[1-[6-[5-(1-methylcyclopropoxy)-2H-indazol-3-yl]pyrimidin-4-yl]azetidin-3-yl]oxy-1-piperidyl]methyl]-1-piperidyl]isoindoline-1,3-dione]
< 10 nM	≥ 70%	≥ 70%	< 10 nM	≥ 70%	< 10 nM							CC1(Oc2ccc3n[nH]c(-c4cc(N5CCC(COC6CCN(CC7CCN(c8ccc9c(c8)C(=O)N(C8CCC(=O)NC8=O)C9=O)CC7)CC6)CC5)ncn4)c3c2)CC1 (stereo not drawn) [Compound 61, 2-(2,6-dioxo-3-piperidyl)-5-[4-[[4-[[1-[6-[5-(1-methylcyclopropoxy)-2H-indazol-3-yl]pyrimidin-4-yl]-4-piperidyl]methoxy]-1-piperidyl]methyl]-1-piperidyl]isoindoline-1,3-dione]
< 10 nM	≥ 70%	≥ 70%	< 10 nM	≥ 70%	< 10 nM							CC1(Oc2ccc3n[nH]c(-c4cc(N5CCC(CN6CCN(CC7CCN(c8ccc9c(c8)C(=O)N(C8CCC(=O)NC8=O)C9=O)CC7)CC6)CC5)ncn4)c3c2)CC1 (stereo not drawn) [Compound 68, 2-(2,6-dioxo-3-piperidyl)-5-[4-[[4-[[1-[6-[5-(1-methylcyclopropoxy)-2H-indazol-3-yl]pyrimidin-4-yl]-4-piperidyl]methyl]piperazin-1-yl]methyl]-1-piperidyl]isoindoline-1,3-dione]
< 10 nM	≥ 70%	≥ 70%	< 10 nM	≥ 70%	< 10 nM							CC1(Oc2ccc3n[nH]c(-c4cc(N5CC(F)(CN6CCN(CC7CCN(c8ccc9c(c8)C(=O)N(C8CCC(=O)NC8=O)C9=O)CC7)CC6)C5)ncn4)c3c2)CC1 (stereo not drawn) [Compound 131, 2-(2,6-dioxo-3-piperidyl)-5-[4-[[4-[[3-fluoro-1-[6-[5-(1-methylcyclopropoxy)-2H-indazol-3-yl]pyrimidin-4-yl]azetidin-3-yl]methyl]piperazin-1-yl]methyl]-1-piperidyl]isoindoline-1,3-dione]
